Counter-ions that a name gives are not always drawn.
target: T1, interaction between VCAM-1 and VLA-4 (Homo sapiens, UniProt P05556+P13612); assay: U937/VCAM-1 cell adhesion test (adhesion of U937 cells to hVCAM-1(1-3)-IgG); assay type: cell-based; settings: inhibition of adhesion of human U937 cells (ATCC CRL 1593) to hVCAM-1(1-3)-IgG
T1 construct: supplied in their natural form as surface molecules on human U937 cells; host or cells: human U937 cells (VLA-4, endogenous); the partner hVCAM-1(1-3)-IgG was made in house in transfected COS cells (ATCC CRL1651) and used as culture supernatant
Description: A) U937/VCAM-1 Cell Adhesion Test
The test method used for the activity of the compounds of the formula I on the interaction between VCAM-1 and VLA-4 is the assay described below, which is specific for this interaction. The cellular binding components, that is the VLA-4 integrins, are supplied in their natural form as surface molecules on human U937 cells (ATCC CRL 1593), which belong to the leukocytes group. The specific binding components used are genetically engineered recombinant soluble fusion proteins, consisting of the extracytoplasmic domain of human VCAM-1 and the constant region of a human immunoglobulin of the subclass IgG1.
Assay for the Measurement of the Adhesion of U937 Cells (ATCC CRL 1593) to hVCAM-1 (1-3)-IgG
1. Preparation of Human VCAM-1(1-3)-IgG and Human CD4-IgG
A genetic construct for the expression of the extracellular domain of human VCAM-1, combined with the genetic sequence of the heavy chain of human immunoglobulin IgG1 (hinge, CH2 and CH3 regions) (from Brian Seed, Massachusetts General Hospital, Boston, USA; cf. Damle and Aruffo, Proc. Natl. Acad. Sci. USA 1991, 88, 6403), was employed. The soluble fusion protein hVCAM-1(1-3)-IgG contained the three aminoterminal extracellular immunoglobulin-like domains of human VCAM-1 (Damle and Aruffo, Proc. Natl. Acad. Sci. USA 1991, 88, 6403). CD4-IgG (Zettlmeissl et al., DNA and Cell Biology 1990, 9, 347) served as a fusion protein for negative controls. The recombinant proteins were expressed as soluble proteins after DEAE/dextran-mediated DNA transfection in COS cells (ATCC CRL1651) according to standard procedures (Ausubel et al., Current protocols in molecular biology, John Wiley & Sons, Inc., 1994).
2. Assay for the Measurement of the Adhesion of U937 Cells to hVCAM-1(1-3)-IgG
2.1 96-well microtiter test plates (Nunc Maxisorb) were incubated at room temperature for 1 hour with 100 μl/well of a goat-anti-human IgG antibody solution (10 μg/ml in 50 mM tris, pH 9.5). After removal of the antibody solution, washing was carried out once with PBS.
2.2 150 μl/well of a blocking buffer (1% BSA in PBS) were incubated on the plates at room temperature for 0.5 hour. After removal of the blocking buffer, washing was carried out once with PBS.
2.3 100 μl per well of a cell culture supernatant of transfected COS cells were incubated on the plates at room temperature for 1.5 hours. The COS cells were transfected with a plasmid which codes for the three N-terminal immunoglobulin-like domains of VCAM-1, coupled to the Fc portion of human IgG1 (hVCAM-1 (1-3)-IgG). The content of hVCAM-1(1-3)-IgG was about 0.5-1 μg/ml. After removing the culture supernatant, washing was carried out once with PBS.
2.4 The plates were incubated at room temperature for 20 minutes with 100 μl/well of Fc receptor blocking buffer (1 mg/ml of γ-globulin, 100 mM NaCl, 100 μM MgCl2, 100 μM MnCl2, 100 μM CaCl2, 1 mg/ml of BSA in 50 mM HEPES, pH 7.5). After removal of the Fc receptor blocking buffer, washing was carried out once with PBS.
2.5 20 μl of binding buffer (100 μM NaCl, 100 μM MgCl2, 100 μM MnCl2, 100 μM CaCl2, 1 mg/ml of BSA in 50 mM HEPES, pH 7.5) were initially introduced, and the substances to be tested were added in 10 μl of binding buffer and incubated for 20 minutes. The controls used were antibodies against VCAM-1(BBT, No. BBA6) and against VLA-4(Immunotech, No. 0764).
2.6 U937 cells were incubated in Fc receptor blocking buffer for 20 minutes and then pipetted in at a concentration of 1×10^6/ml and in an amount of 100 μl per well ([…]).
2.7 The plates were slowly immersed at an angle of 45° in stop buffer (100 mM NaCl, 100 μM MgCl2, 100 μM MnCl2, 100 μM CaCl2 in 25 mM Tris, pH 7.5) and shaken off. The process was repeated.
2.8 50 μl/well of a dye solution ([…] of Hoechst Dye 33258, 4% formaldehyde, 0.5% Triton X-100 in PBS) were then incubated on the plates for 15 minutes. […]

T1 sequence (P13612 34-1032): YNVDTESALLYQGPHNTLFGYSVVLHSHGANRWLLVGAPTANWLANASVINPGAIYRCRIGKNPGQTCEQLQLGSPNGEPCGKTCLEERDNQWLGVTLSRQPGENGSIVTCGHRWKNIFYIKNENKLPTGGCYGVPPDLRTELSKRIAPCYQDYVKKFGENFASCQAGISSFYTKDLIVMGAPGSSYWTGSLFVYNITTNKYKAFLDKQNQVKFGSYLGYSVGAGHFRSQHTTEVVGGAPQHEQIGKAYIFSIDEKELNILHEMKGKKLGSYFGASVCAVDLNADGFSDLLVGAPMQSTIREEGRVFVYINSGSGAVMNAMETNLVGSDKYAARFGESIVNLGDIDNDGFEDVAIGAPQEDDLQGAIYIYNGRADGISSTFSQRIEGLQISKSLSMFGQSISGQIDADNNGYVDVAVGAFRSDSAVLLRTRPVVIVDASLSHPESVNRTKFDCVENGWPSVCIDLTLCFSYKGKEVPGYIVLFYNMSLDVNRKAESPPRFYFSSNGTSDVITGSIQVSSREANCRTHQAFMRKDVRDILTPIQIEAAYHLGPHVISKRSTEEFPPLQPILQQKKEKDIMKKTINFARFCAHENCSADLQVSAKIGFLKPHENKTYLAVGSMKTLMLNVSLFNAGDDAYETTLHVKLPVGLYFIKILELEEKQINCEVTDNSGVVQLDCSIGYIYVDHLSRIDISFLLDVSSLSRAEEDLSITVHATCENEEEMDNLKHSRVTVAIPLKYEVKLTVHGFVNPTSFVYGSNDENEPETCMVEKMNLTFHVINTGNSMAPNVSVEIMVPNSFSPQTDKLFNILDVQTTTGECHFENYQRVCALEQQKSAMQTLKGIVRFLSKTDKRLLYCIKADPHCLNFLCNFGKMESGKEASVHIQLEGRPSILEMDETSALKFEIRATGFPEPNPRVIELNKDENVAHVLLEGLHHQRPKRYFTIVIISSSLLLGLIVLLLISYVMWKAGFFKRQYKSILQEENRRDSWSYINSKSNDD
T1 sequence (P05556 21-798): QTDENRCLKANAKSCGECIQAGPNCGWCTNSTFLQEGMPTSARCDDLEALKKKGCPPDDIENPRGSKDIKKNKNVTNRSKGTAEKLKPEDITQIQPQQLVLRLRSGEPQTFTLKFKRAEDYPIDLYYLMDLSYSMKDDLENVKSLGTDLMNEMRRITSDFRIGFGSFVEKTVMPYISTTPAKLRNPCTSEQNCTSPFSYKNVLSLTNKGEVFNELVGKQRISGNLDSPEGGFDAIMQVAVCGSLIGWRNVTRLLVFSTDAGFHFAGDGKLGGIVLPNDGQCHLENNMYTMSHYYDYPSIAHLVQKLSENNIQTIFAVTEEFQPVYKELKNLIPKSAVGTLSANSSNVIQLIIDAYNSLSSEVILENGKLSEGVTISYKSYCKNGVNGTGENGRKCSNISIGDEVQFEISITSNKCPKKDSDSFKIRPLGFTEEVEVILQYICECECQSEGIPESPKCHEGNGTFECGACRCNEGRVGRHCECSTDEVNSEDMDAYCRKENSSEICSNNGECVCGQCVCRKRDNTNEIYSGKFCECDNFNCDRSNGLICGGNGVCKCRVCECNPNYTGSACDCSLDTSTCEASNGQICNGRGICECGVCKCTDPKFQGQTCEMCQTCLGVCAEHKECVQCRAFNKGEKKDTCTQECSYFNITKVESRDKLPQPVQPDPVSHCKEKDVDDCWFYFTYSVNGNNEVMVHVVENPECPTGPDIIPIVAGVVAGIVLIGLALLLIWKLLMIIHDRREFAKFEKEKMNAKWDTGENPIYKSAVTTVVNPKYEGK

COc1ccc([C@H](CC(=O)O)NC(=O)[C@H](CC(C)C)N2C(=O)N(Cc3ccc(NC(=O)Nc4ccccc4C)cc3)C3(CCCCC3)C2=O)cc1 [Example 26, (S)-3-((S)-2-(4,4-Pentamethylene-3-(4-(3-(2-methylphenyl)ureido)benzyl)-2,5-dioxoimidazolidin-1-yl)-2-(2-methylpropyl)acetylamino)-3-(4-methoxyphenyl)propionic acid] and COc1ccc([C@H](CC(=O)O)NC(=O)[C@H](CC(C)C)N2C(=O)N(Cc3ccc(NC(=O)Nc4ccccc4C)cc3)C3(CCCCC3)C2=O)c(OC)c1 [Example 28, (S)-3-((S)-2-(4,4-Pentamethylene-3-(4-(3-(2-methyphenyl)ureido)benzyl)-2,5-dioxoimidazolidin-1-yl)-2-(2-methylpropyl)acetylamino)-3-(2,4-dimethoxyphenyl)propionic acid] are within 1.5-fold of each other in IC50: 2.6 nM for the first, 2.1 nM for the second.

Compared with COc1ccc([C@H](CC(=O)O)NC(=O)[C@H](CC(C)C)N2C(=O)N(Cc3ccc(NC(=O)Nc4ccccc4C)cc3)C3(CCCCC3)C2=O)cc1 [Example 27, (S)-3-((S)-2-(4,4-Pentamethylene-3-(4-(3-(2-methylphenyl)ureido)benzyl)-2,5-dioxoimidazolidin-1-yl)-2-(2-methylpropyl)acetylamino)-3-(4-methoxyphenyl)propionic acid tromethamine salt], COc1ccc([C@H](CC(=O)O)NC(=O)[C@H](CC(C)C)N2C(=O)N(Cc3ccc(NC(=O)Nc4ccccc4C)cc3)C3(CCCCC3)C2=O)c(OC)c1 [Example 29, (S)-3-((S)-2-(4,4-Pentamethylene-3-(4-(3-(2-methylphenyl)ureido)benzyl-2,5-dioxoimidazolidin-1-yl)-2-(2-methylpropyl)acetylamino)-3-(2,4-dimethoxyphenyl)propionic acid tromethamine salt] is 1.8-fold lower in IC50: 3.4 nM for the first, 1.9 nM for the second.

First: COc1ccc([C@H](CC(=O)O)NC(=O)[C@H](CC(C)C)N2C(=O)N(Cc3ccc(NC(=O)Nc4ccccc4C)cc3)C3(CCCCC3)C2=O)c(OC)c1 [Example 30, (S)-3-((S)-2-(4,4-Pentamethylene-3-(4-(3-(2-methylphenyl)ureido)benzyl)-2,5-dioxoimidazolidin-1-yl)-2-(2-methylpropyl)acetylamino)-3-(2,4-dimethoxyphenyl)propionic acid sodium salt]
Second: COc1ccc([C@H](CC(=O)O)NC(=O)[C@H](CC(C)C)N2C(=O)N(Cc3ccc(NC(=O)Nc4ccccc4C)cc3)C3(CCCCC3)C2=O)cc1OC [Example 31, (S)-3-((S)-2-(4,4-Pentamethylene-3-(4-(3-(2-methylphenyl)ureido)benzyl)-2,5-dioxoimidazolidin-1-yl)-2-(2-methylpropyl)acetylamino)-3-(3,4-dimethoxyphenyl)propionic acid]
The IC50 of the first is 4.5-fold higher: 3.6 nM for the first, 0.8 nM for the second. The second is the more potent here.

COc1ccc([C@H](CC(=O)O)NC(=O)[C@H](CC(C)C)N2C(=O)N(Cc3ccc(NC(=O)Nc4ccccc4C)cc3)C3(CCCCC3)C2=O)cc1OC [Example 32, (S)-3-((S)-2-(4,4-Pentamethylene-3-(4-(3-(2-methylphenyl)ureido)benzyl)-2,5-dioxoimidazolidin-1-yl)-2-(2-methylpropyl)acetylamino)-3-(3,4-dimethoxyphenyl)propionic acid tromethamine salt] and COc1ccc([C@H](CC(=O)O)NC(=O)[C@H](CC2CC2)N2C(=O)N(Cc3ccc(NC(=O)Nc4ccccc4C)cc3)C3(CCCCC3)C2=O)cc1OC [Example 39, (S)-3-((S)-2-(4,4-Pentamethylene-3-(4-(3-(2-methylphenyl)ureido)benzyl)-2,5-dioxoimidazolidin-1-yl)-2-cyclopropylmethylacetylamino)-3-(3,4-dimethoxyphenyl)propionic acid] are within 1.5-fold of each other in IC50: 0.6 nM for the first, 0.8 nM for the second.

COc1ccc([C@H](CC(=O)O)NC(=O)[C@H](CC(C)C)N2C(=O)N(Cc3ccc(NC(=O)Nc4ccccc4C)cc3)C3(CCCCC3)C2=O)cc1OC [Example 33, (S)-3-((S)-2-(4,4-Pentamethylene-3-(4-(3-(2-methylphenyl)ureido)benzyl)-2,5-dioxoimidazolidin-1-yl)-2-(2-methylpropyl)acetylamino)-3-(3,4-dimethoxyphenyl)propionic acid sodium salt] and COc1cc(CN2C(=O)N([C@@H](CC(C)C)C(=O)N[C@@H](CC(=O)O)c3ccc(OC)c(OC)c3)C(=O)C23CCCCC3)ccc1NC(=O)Nc1ccccc1C [Example 37, (S)-3-((S)-2-(4,4-Pentamethylene-3-(4-(3-(2-methylphenyl)ureido)-3-methoxybenzyl)-2,5-dioxoimidazolidin-1-yl)-2-(2-methylpropyl)acetylamino)-3-(3,4-dimethoxyphenyl)propionic acid] are the same in IC50: 1.3 nM for the first, 1.3 nM for the second.

Cc1ccccc1NC(=O)Nc1ccc(CN2C(=O)N([C@@H](CC(C)C)C(=O)N[C@@H](CC(=O)O)c3ccc4c(c3)OCCO4)C(=O)C23CCCCC3)cc1 [Example 34, (S)-3-((S)-2-(4,4-Pentamethylene-3-(4-(3-(2-methylphenyl)ureido)benzyl)-2,5-dioxoimidazolidin-1-yl)-2-(2-methylpropyl)acetylamino)-3-(3,4-ethylenedioxyphenyl)propionic acid] and COc1ccc([C@H](CC(=O)O)NC(=O)[C@H](CC2CC2)N2C(=O)N(Cc3ccc(NC(=O)Nc4ccccc4C)cc3)C3(CCCCC3)C2=O)c(OC)c1 [Example 40, (S)-3-((S)-2-(4,4-Pentamethylene-3-(4-(3-(2-methylphenyl)ureido)benzyl)-2,5-dioxoimidazolidin-1-yl)-2-cyclopropylmethylacetylamino)-3-(2,4-dimethoxyphenyl)propionic acid] are within 1.5-fold of each other in IC50: 1.8 nM for the first, 2.1 nM for the second.

Cc1ccccc1NC(=O)Nc1ccc(CN2C(=O)N([C@@H](CC(C)C)C(=O)N[C@@H](CC(=O)O)c3ccc4c(c3)OCCO4)C(=O)C23CCCCC3)cc1 [Example 35, (S)-3-((S)-2-(4,4-Pentamethylene-3-(4-(3-(2-methylphenyl)ureido)benzyl)-2,5-dioxoimidazolidin-1-yl)-2-(2-methylpropyl)acetylamino)-3-(3,4-ethylenedioxyphenyl)propionic acid sodium salt] and COc1ccc([C@H](CC(=O)O)NC(=O)[C@H](CC2CC2)N2C(=O)N(Cc3ccc(NC(=O)Nc4ccccc4C)cc3)C3(CCCCC3)C2=O)c(OC)c1 [Example 41, (S)-3-((S)-2-(4,4-Pentamethylene-3-(4-(3-(2-methylphenyl)ureido)benzyl)-2,5-dioxoimidazolidin-1-yl)-2-cyclopropylmethylacetylamino)-3-(2,4-dimethoxyphenyl)propionic acid sodium salt] are within 1.5-fold of each other in IC50: 3.4 nM for the first, 2.3 nM for the second.

For COc1cc(CN2C(=O)N([C@@H](CC(C)C)C(=O)N[C@@H](CC(=O)O)c3ccc(OC)c(OC)c3)C(=O)C23CCCCC3)ccc1NC(=O)Nc1ccccc1C [Example 38, (S)-3-((S)-2-(4,4-Pentamethylene-3-(4-(3-(2-methylphenyl)ureido)-3-methoxybenzyl)-2,5-dioxoimidazolidin-1-yl)-2-(2-methylpropyl)acetylamino)-3-(3,4-dimethoxyphenyl)propionic acid tromethamine salt], the IC50 was 1.6 nM.
